Data as given in patent publication US7935722B2 (Eli Lilly and Company, priority 2005, dated 2011).
Like-named read-outs stand apart in the source and are kept apart here.

Key:
[1] = biological target: T1, human AR (androgen receptor) (Homo sapiens, UniProt P10275); experiment: Steroid hormone nuclear receptor binding assay, AR binding
T1 construct: expressed in transfected cells; host or cells: 293 cells (293-AR lysate)
T1 sequence (P10275 1-920): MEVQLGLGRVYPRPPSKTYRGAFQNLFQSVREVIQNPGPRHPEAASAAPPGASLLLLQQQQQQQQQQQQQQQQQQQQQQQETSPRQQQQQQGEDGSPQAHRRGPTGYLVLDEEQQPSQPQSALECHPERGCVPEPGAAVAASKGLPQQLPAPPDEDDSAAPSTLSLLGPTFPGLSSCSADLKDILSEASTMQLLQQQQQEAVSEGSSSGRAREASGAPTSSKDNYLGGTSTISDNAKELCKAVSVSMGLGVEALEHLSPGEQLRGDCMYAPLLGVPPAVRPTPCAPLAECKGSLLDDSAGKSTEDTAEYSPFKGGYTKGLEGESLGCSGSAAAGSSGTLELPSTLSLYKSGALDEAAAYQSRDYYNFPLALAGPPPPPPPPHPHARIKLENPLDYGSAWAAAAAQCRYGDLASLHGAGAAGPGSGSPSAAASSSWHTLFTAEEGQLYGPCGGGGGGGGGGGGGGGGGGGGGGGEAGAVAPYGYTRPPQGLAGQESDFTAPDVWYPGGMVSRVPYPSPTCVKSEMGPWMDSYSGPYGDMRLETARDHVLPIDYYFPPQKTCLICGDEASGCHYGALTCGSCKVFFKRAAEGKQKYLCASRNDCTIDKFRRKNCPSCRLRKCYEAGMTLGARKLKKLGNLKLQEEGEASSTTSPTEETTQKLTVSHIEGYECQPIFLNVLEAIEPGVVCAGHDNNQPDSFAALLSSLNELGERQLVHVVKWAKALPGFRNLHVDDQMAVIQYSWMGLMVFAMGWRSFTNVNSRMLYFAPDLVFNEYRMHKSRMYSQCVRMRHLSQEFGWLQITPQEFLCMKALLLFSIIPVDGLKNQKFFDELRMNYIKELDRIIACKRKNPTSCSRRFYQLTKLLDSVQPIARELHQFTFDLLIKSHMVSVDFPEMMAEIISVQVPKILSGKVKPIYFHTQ
Procedure, shortened: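 Competition binding with lysates of 293 cells overexpressing human AR, [3H]-methyltrienolone tracer, compounds from about 0.01 nM to 10 μM, overnight at 4 °C; non-specific binding set with 500 nM methyltrienolone. Bound tracer counted by scintillation after charcoal-dextran separation; IC50 converted to Ki by Cheng-Prusoff using Kd from saturation binding.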

[2] = biological target: T2, human androgen receptor (AR) (Homo sapiens, UniProt P10275); experiment: C2C12 AR/ARE reporter assay; type: cell-based
T2 construct: expressed in transfected cells; host or cells: mouse myoblast C2C12 cells, transiently co-transfected
T2 sequence (P10275 1-920): T1 sequence (P10275 1-920)
Procedure, shortened: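 Mouse C2C12 myoblasts co-transfected with AR/ARE reporter were plated in charcoal-stripped serum and treated for 48 h with compound from about 0.01 nM to 10 μM. Luciferase activity gave EC50 by 4-parameter logistic fit. Efficacy is expressed as % of maximal stimulation by 10 nM methyltrienolone.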

[3] = C2C12, read-out: C2C12 % Efficacy

CC(C)C(=O)NC1CCc2c(c3cc(Br)ccc3n2Cc2cccc(Cl)c2)C1 (stereo not drawn) [Example 36]
melting point: 186 to 188 °C
Ki [1]: 7.6 nM
EC50 [2]: 20.7 nM
Emax [2, 3]: 99.4%

COc1cccc(Cn2c3c(c4cc(Br)ccc42)CC(NC(=O)C(C)C)CC3)c1 (stereo not drawn) [Example 37]
melting point: 176 to 180 °C
Ki [1]: 9.1 nM
EC50 [2]: 109 nM
Emax [2, 3]: 95.5%

CC(C)C(=O)NC1CCc2c(c3cc(Br)ccc3n2Cc2cccc(C#N)c2)C1 (stereo not drawn) [Example 38]
melting point: 228 to 230 °C
Ki [1]: 9.7 nM
EC50 [2]: 108 nM
Emax [2, 3]: 79.5%

CC(C)C(=O)NC1CCc2c(c3cc(Br)ccc3n2Cc2ccc(F)cc2)C1 (stereo not drawn) [Example 39]
melting point: 165 to 170 °C
Ki [1]: 5.3 nM
EC50 [2]: 28.9 nM
Emax [2, 3]: 76.1%

CC(C)C(=O)NC1CCc2c(c3cc(Br)ccc3n2Cc2ccc(Cl)cc2)C1 (stereo not drawn) [Example 40]
melting point: 142 to 149 °C
Ki [1]: 30.9 nM
EC50 [2]: 188 nM
Emax [2, 3]: 68%

COc1ccc(Cn2c3c(c4cc(Br)ccc42)CC(NC(=O)C(C)C)CC3)cc1 (stereo not drawn) [Example 41]
melting point: 120 to 125 °C
Ki [1]: 43.2 nM
EC50 [2]: 1820 nM
Emax [2, 3]: 46.6%

Cc1ccc2c(c1)c1c(n2Cc2ccccc2)CCC(NC(=O)C(C)C)C1 (stereo not drawn) [Example 42]
melting point: 197 to 199 °C
Ki [1]: 63.6 nM
EC50 [2]: 30.4 nM
Emax [2, 3]: 73%

Cc1ccc2c(c1)c1c(n2Cc2ccccc2F)CCC(NC(=O)C(C)C)C1 (stereo not drawn) [Example 43]
melting point: 174 to 176 °C
Ki [1]: 104 nM
EC50 [2]: 462 nM
Emax [2, 3]: 69.6%

Cc1ccc2c(c1)c1c(n2Cc2ccccc2Cl)CCC(NC(=O)C(C)C)C1 (stereo not drawn) [Example 44]
melting point: 194 °C
Ki [1]: 94.2 nM
EC50 [2]: 305 nM
Emax [2, 3]: 71.1%

Cc1ccc2c(c1)c1c(n2Cc2ccccc2C#N)CCC(NC(=O)C(C)C)C1 (stereo not drawn) [Example 46]
melting point: 218 to 220 °C
Ki [1]: 137 nM
Emax [2, 3]: 40.5%

Cc1ccc2c(c1)c1c(n2Cc2cccc(Cl)c2)CCC(NC(=O)C(C)C)C1 (stereo not drawn) [Example 48]
melting point: 190 to 192 °C
Ki [1]: 9.4 nM
EC50 [2]: 116 nM
Emax [2, 3]: 69.5%

Cc1ccc2c(c1)c1c(n2Cc2cccc(C#N)c2)CCC(NC(=O)C(C)C)C1 (stereo not drawn) [Example 50]
melting point: 209 to 211 °C
Ki [1]: 150 nM
EC50 [2]: 940 nM
Emax [2, 3]: 45.8%

CCOC(=O)c1ccc2c(c1)c1c(n2Cc2cccc(F)c2)CCC(NC(=O)C(C)C)C1 (stereo not drawn) [Example 52]
melting point: 226 to 228 °C
Ki [1]: 6.1 nM
EC50 [2]: 5.6 nM
Emax [2, 3]: 73.2%

CC(C)C(=O)NC1CCc2c(c3cc(S(C)(=O)=O)ccc3n2Cc2cccc(F)c2)C1 (stereo not drawn) [Example 53]
melting point: 205 to 207 °C
Ki [1]: 21.6 nM
EC50 [2]: 24.3 nM
Emax [2, 3]: 107%

CC(C)C(=O)NC1CCc2c(c3cc(C(F)(F)F)ccc3n2Cc2cccc(F)c2)C1 (stereo not drawn) [Example 55]
melting point: 131 to 138 °C
Ki [1]: 11.2 nM
EC50 [2]: 2.5 nM
Emax [2, 3]: 82.9%

CC(C)C(=O)NC1CCc2c(c3cccc(Cl)c3n2Cc2cccc(F)c2)C1 (stereo not drawn) [Example 57]
melting point: 205 to 207 °C
Ki [1]: 25.1 nM
EC50 [2]: 323 nM
Emax [2, 3]: 36.5%

COc1cc2c3c(n(Cc4cccc(F)c4)c2cc1Cl)CCC(NC(=O)C(C)C)C3 (stereo not drawn) [Example 59]
melting point: 212 to 215 °C
Ki [1]: 59 nM
EC50 [2]: 242 nM
Emax [2, 3]: 39.5%

Cc1cccc2c3c(n(Cc4cccc(F)c4)c12)CCC(NC(=O)C(C)C)C3 (stereo not drawn) [Example 60]
melting point: 188 to 191 °C
Ki [1]: 35.9 nM
EC50 [2]: 299 nM
Emax [2, 3]: 74.2%

CC(C)C(=O)NC1CCc2c(c3cc(C(N)=O)ccc3n2Cc2cccc(F)c2)C1 (stereo not drawn) [Example 63, 9-(3-Fluorobenzyl)-6-isobutyrylamino-6,7,8,9-tetrahydro-5H-carbazole-3-carboxylic acid amide]
melting point: 192 to 194 °C
Ki [1]: 39.3 nM
EC50 [2]: 66.9 nM
Emax [2, 3]: 113%

COc1ccc2c(c1)c1c(n2Cc2ccccc2)CCC(NC(C)=O)C1 (stereo not drawn) [Example 65, N-(9-Benzyl-6-methoxy-2,3-4,9-tetrahydro-1H-carbazol-3-yl)-acetamide]
melting point: 184 to 185 °C
Ki ([1]; average of n trials, read-out: AR binding Ki): 58.4 nM
Emax ([2]; C2C12 AR/ARE reporter assay, average of n trials, read-out: C2C12 % Efficacy): 87.3%
EC50 ([2]; C2C12 AR/ARE reporter assay, average of n trials, read-out: C2C12 EC50): 40.5 nM

CC(C)C(=O)NC1CCc2c(c3cc(C#N)ccc3n2Cc2ccccc2C(F)(F)F)C1 (stereo not drawn) [Example 96, N-[6-Cyano-9-(2-trifluoromethyl-benzyl)-2,3,4,9-tetrahydro-1H-carbazol-3-yl]-isobutyramide]
melting point: 222 to 225 °C
Ki [1]: 14.7 nM
EC50 [2]: 123 nM
Emax [2, 3]: 88%

CC(C)C(=O)NC1CCc2c(c3cc(C#N)ccc3n2Cc2ccccc2OC(F)F)C1 (stereo not drawn) [Example 97, N-[6-Cyano-9-(2-difluoromethoxy-benzyl)-2,3,4,9-tetrahydro-1H-carbazol-3-yl]-isobutyramide]
melting point: 217 to 219 °C
Ki [1]: 4.6 nM
EC50 [2]: 32.8 nM
Emax [2, 3]: 102%

CC(C)C(=O)NC1CCc2c(c3cc4c(cc3n2Cc2cccc(F)c2)OCO4)C1 (stereo not drawn) [Example 98, N-[9-(3-Fluoro-benzyl)-6,7,8,9-tetrahydro-5H-1,3-dioxa-9-aza-cyclopenta[b]fluoren-6-yl]-isobutyramide]
melting point: 250 to 255 °C
Ki [1]: 7 nM
EC50 [2]: 40.8 nM
Emax [2, 3]: 104%

CC(C)C(=O)NC1CCc2c(c3cc4c(cc3n2Cc2cccc(F)c2)OC(F)(F)O4)C1 (stereo not drawn) [Example 99, N-[2,2-Difluoro-9-(3-fluoro-benzyl)-6,7,8,9-tetrahydro-5H-1,3-dioxa-9-aza-cyclopenta[b]fluoren-6-yl]-isobutyramide]
melting point: 197 to 199 °C
Ki [1]: 6.2 nM
EC50 [2]: 9.4 nM
Emax [2, 3]: 69%

CC(C)C(=O)NC1CCc2c(c3cc(C#N)ccc3n2Cc2ccccc2OC(F)(F)F)C1 (stereo not drawn) [Example 100, N-[6-Cyano-9-(2-trifluoromethoxy-benzyl)-2,3,4,9-tetrahydro-1H-carbazol-3-yl]-isobutyramide]
melting point: 224 to 225 °C
Ki [1]: 8 nM
EC50 [2]: 126 nM
Emax [2, 3]: 87.6%

CC(C)C(=O)N[C@H]1CCc2c(c3cc(C#N)ccc3n2Cc2cccc(F)c2)C1 [Example 124, (S)-N-(6-Cyano-9-(3-fluorobenzyl)-2,3,4,9-tetrahydro-1H-carbazol-3-yl)isobutyramide]
melting point: 223 to 225 °C
Ki [1]: 195 nM
EC50 [2]: 1110 nM
Emax [2, 3]: 49.9%

CC(C)C(=O)NC1CCc2c(c3cc(-c4nnc(N)s4)ccc3n2Cc2cccc(F)c2)C1 (stereo not drawn) [Example 125, N-[6-(5-Amino[1,3,4]thiadiazol-2-yl)-9-(3-fluorobenzyl)-2,3,4,9-tetrahydro-1H-carbazol-3-yl]isobutyramide]
melting point: 251 to 254 °C
Ki [1]: 55.1 nM
EC50 [2]: 68.5 nM
Emax [2, 3]: 75.8%

CC(C)C(=O)NC1CCc2c(c3cc(-c4nccs4)ccc3n2Cc2cccc(F)c2)C1 (stereo not drawn) [Example 130, N-[9-(3-Fluorobenzyl)-6-thiazol-2-yl-2,3,4,9-tetrahydro-1H-carbazol-3-yl]isobutyramide]
melting point: 221 to 225 °C
Ki [1]: 13.6 nM
EC50 [2]: 5 nM
Emax [2, 3]: 85.6%
